Measured values taken from patent publication US20260232767A1, “INTERLEUKIN-23 RECEPTOR ANTAGONIST PEPTIDES FOR USE IN THE TREATMENT OF PSORIASIS” (Janssen Pharmaceutica NV, priority 2023, published 2026).

Tested on: subjects with moderate-to-severe plaque psoriasis
Experiment: Safety, adverse events, Example 2 through Week 56
Type: in vivo, human
Details: Placebo → 100 mg QD
Text: The LTE safety analysis was based on randomized participants in Example who entered the present long-term extension study and received at least one dose of study intervention (including a partial dose) during the study period.

CC(=O)NCCCC[C@@H]1NC(=O)[C@H](Cc2c[nH]c3c(C)cccc23)NC(=O)[C@H]([C@@H](C)O)NC(=O)[C@H](CC(N)=O)NC(=O)[C@@H](NC(C)=O)C(C)(C)SSC(C)(C)[C@@H](C(=O)N[C@@H](Cc2ccc(OCCN)cc2)C(=O)N[C@@H](Cc2ccc3ccccc3c2)C(=O)NC2(C(=O)N[C@@H](CCC(=O)O)C(=O)N[C@@H](CC(N)=O)C(=O)N[C@@H](Cc3cccnc3)C(=O)N(C)CC(N)=O)CCOCC2)NC1=O [IL-23 receptor antagonist peptide, Ac-[Pen]*-N-T-[W(7-Me)]-[Lys(Ac)]-[Pen]*-Phe[4-(2-aminoethoxy)]-[2-Nal]-[THP]-E-N-[3-Pal]-Sarc-NH2 (*[Pen]-[Pen]* formdisulfidebond)]
Subjects with serious adverse event: Ventricular dysfunction (LTE Safety analysis set): 0 | Subjects with 1 or more treatment-emergent adverse events leading to discontinuation of study agent (Week 16-56): 0 | Subjects with AE leading to discontinuation: Alanine aminotransferase increased (Week 16-56): 0 | Subjects with AE leading to discontinuation: Aspartate aminotransferase increased (Week 16-56): 0 | Subjects with AE leading to discontinuation: Asthenia (Week 16-56): 0 | Subjects with AE leading to discontinuation: Chills (Week 16-56): 0 | Subjects with AE leading to discontinuation: Ear and labyrinth disorders (Week 16-56): 0 | Subjects with AE leading to discontinuation: Gamma-glutamyltransferase increased (Week 16-56): 0 | Subjects with AE leading to discontinuation: Gastrointestinal disorders (Week 16-56): 0 | Subjects with AE leading to discontinuation: General disorders and administration site conditions (Week 16-56): 0 | Subjects with AE leading to discontinuation: Headache (Week 16-56): 0 | Subjects with AE leading to discontinuation: Insomnia (Week 16-56): 0 | Subjects with AE leading to discontinuation: Investigations (Week 16-56): 0 | Subjects with AE leading to discontinuation: Nervous system disorders (Week 16-56): 0 | Subjects with AE leading to discontinuation: Proctalgia (Week 16-56): 0 | Subjects with AE leading to discontinuation: Psoriasis (Week 16-56): 0 | Subjects with AE leading to discontinuation: Psychiatric disorders (Week 16-56): 0 | Subjects with AE leading to discontinuation: Skin and subcutaneous tissue disorders (Week 16-56): 0 | Subjects with AE leading to discontinuation: Vertigo (Week 16-56): 0 | Subjects with AE leading to discontinuation: Vomiting (Week 16-56): 0 | Subjects with treatment-emergent AE: Headache (Week 16-56): 0 | Subjects with treatment-emergent AE: Meniscus injury (Week 16-56): 0 | Subjects with treatment-emergent AE: Nasopharyngitis (Week 16-56): 9 | Subjects with treatment-emergent AE: Sinusitis (Week 16-56): 0 | Subjects with treatment-emergent AE: Vomiting (Week 16-56): 0 | Subjects with treatment-emergent serious AE: Cardiac disorders (Week 16-56): 0 | Subjects with treatment-emergent serious AE: Coronary artery disease (Week 16-56): 0 | Subjects with treatment-emergent serious AE: Diverticulitis (Week 16-56): 0 | Subjects with treatment-emergent serious AE: Foot deformity (Week 16-56): 0 | Subjects with treatment-emergent serious AE: General disorders and administration site conditions (Week 16-56): 0 | Subjects with treatment-emergent serious AE: Infections and infestations (Week 16-56): 0 | Subjects with treatment-emergent serious AE: Injury, poisoning and procedural complications (Week 16-56): 0 | Subjects with treatment-emergent serious AE: Intervertebral disc protrusion (Week 16-56): 0 | Subjects with treatment-emergent serious AE: Ligament injury (Week 16-56): 0 | Subjects with treatment-emergent serious AE: Musculoskeletal and connective tissue disorders (Week 16-56): 0 | Subjects with treatment-emergent serious AE: Neoplasms benign, malignant and unspecified (incl cysts and polyps) (Week 16-56): 0 | Subjects with treatment-emergent serious AE: Non-cardiac chest pain (Week 16-56): 0 | Subjects with treatment-emergent serious AE: Respiratory, thoracic and mediastinal disorders (Week 16-56): 0 | Subjects with treatment-emergent serious AE: Tonsillar hypertrophy (Week 16-56): 0 | Subjects with treatment-emergent serious AE: Uterine leiomyoma (Week 16-56): 0 | Subjects with treatment-emergent serious AE: Ventricular dysfunction (Week 16-56): 0 | Acrochordon: number of subjects (through Week 56): 0 | Actinic keratosis: number of subjects (through Week 56): 0 | Alopecia: number of subjects (through Week 56): 0 | Asthenia: number of subjects (through Week 56): 0 | Asthma: number of subjects (through Week 56): 0 | Atrioventricular block first degree: number of subjects (through Week 56): 0 | Basal cell carcinoma: number of subjects (through Week 56): 0 | Blood and lymphatic system disorders: number of subjects (through Week 56): 0 | Bronchitis chronic: number of subjects (through Week 56): 0 | Bundle branch block right: number of subjects (through Week 56): 0 | Cardiac disorders: number of subjects (through Week 56): 0 | Chills: number of subjects (through Week 56): 0 | Cholelithiasis: number of subjects (through Week 56): 0 | Chronic obstructive pulmonary disease: number of subjects (through Week 56): 0 | Coronary artery disease: number of subjects (through Week 56): 0 | Cough: number of subjects (through Week 56): 0 | Decreased appetite: number of subjects (through Week 56): 0 | Depression: number of subjects (through Week 56): 0 | Dermal cyst: number of subjects (through Week 56): 0 | Dermatitis acneiform: % of subjects (through Week 56): (2.9%) | Dermatitis acneiform: number of subjects (through Week 56): 1 | Dermatitis contact: number of subjects (through Week 56): 0 | Diabetes mellitus: number of subjects (through Week 56): 0 | Diffuse alopecia: number of subjects (through Week 56): 0 | Dysuria: % of subjects (through Week 56): (2.9%) | Dysuria: number of subjects (through Week 56): 1 | Ear and labyrinth disorders: number of subjects (through Week 56): 0 | Endocrine disorders: number of subjects (through Week 56): 0 | Eye disorders: % of subjects (through Week 56): (5.7%) | Eye disorders: number of subjects (through Week 56): 2 | Eyelid skin dryness: number of subjects (through Week 56): 0 | Fatigue: number of subjects (through Week 56): 0 | General disorders and administration site conditions: number of subjects (through Week 56): 0 | Goiter: number of subjects (through Week 56): 0 | Haemochromatosis: % of subjects (through Week 56): (2.9%) | Haemochromatosis: number of subjects (through Week 56): 1 | Hand dermatitis: % of subjects (through Week 56): (2.9%) | Hand dermatitis: number of subjects (through Week 56): 1 | Hematuria: % of subjects (through Week 56): (2.9%) | Hematuria: number of subjects (through Week 56): 1 | Hepatobiliary disorders: % of subjects (through Week 56): (2.9%) | Hepatobiliary disorders: number of subjects (through Week 56): 1 | Hypercholesterolemia: number of subjects (through Week 56): 0 | Hyperglycemia: number of subjects (through Week 56): 0 | Hyperlipidemia: number of subjects (through Week 56): 0 | Hypertension: % of subjects (through Week 56): (2.9%) | Hypertension: number of subjects (through Week 56): 1 | Hypertransaminasemia: % of subjects (through Week 56): (2.9%) | Hypertransaminasemia: number of subjects (through Week 56): 1 | Hypertriglyceridemia: number of subjects (through Week 56): 0 | Hypoacusis: number of subjects (through Week 56): 0 | Immune system disorders: number of subjects (through Week 56): 0 | Influenza like illness: number of subjects (through Week 56): 0 | Insomnia: number of subjects (through Week 56): 0 | Intertrigo: number of subjects (through Week 56): 0 | Ketonuria: number of subjects (through Week 56): 0 | Leukocyturia: number of subjects (through Week 56): 0 | Leukopenia: number of subjects (through Week 56): 0 | Libido decreased: number of subjects (through Week 56): 0 | Liver disorder: number of subjects (through Week 56): 0 | Lymphopenia: number of subjects (through Week 56): 0 | Menopause: number of subjects (through Week 56): 0 | Metabolism and nutrition disorders: % of subjects (through Week 56): (2.9%) | Metabolism and nutrition disorders: number of subjects (through Week 56): 1 | Neoplasms benign, malignant and unspecified (incl cysts and polyps): number of subjects (through Week 56): 0 | Nephrolithiasis: number of subjects (through Week 56): 0 | Neutropenia: number of subjects (through Week 56): 0 | Night sweats: number of subjects (through Week 56): 0 | Non-cardiac chest pain: number of subjects (through Week 56): 0 | Ocular cyst: % of subjects (through Week 56): (2.9%) | Ocular cyst: number of subjects (through Week 56): 1 | Oedema peripheral: number of subjects (through Week 56): 0 | Oropharyngeal pain: % of subjects (through Week 56): (2.9%) | Oropharyngeal pain: number of subjects (through Week 56): 1 | Procedural pain: number of subjects (through Week 56): 0 | Productive cough: number of subjects (through Week 56): 0 | Proteinuria: number of subjects (through Week 56): 0 | Pruritus: number of subjects (through Week 56): 0 | Psoriasis: number of subjects (through Week 56): 0 | Psychiatric disorders: number of subjects (through Week 56): 0
